Data: article PMC9181188 (International Journal of Molecular Sciences, 2022)
Converted amounts (≈) assume the structure as drawn. Read-outs that look alike come from different tables or passages of the source.

Legend:
[1] = system: S. epidermidis ATCC 12228; experiment: MIC, twofold microdilution, standard strain; assay type: cell-based; details: Staphylococcus epidermidis, read-out: MIC S. epidermidis ATCC 12228
[2] = system: S. epidermidis KR 4243 829/19; experiment: MIC, clinical S. epidermidis strain; assay type: cell-based; details: Staphylococcus epidermidis, KR4243829/19, quinolone-susceptible, 18 h of treatment
[3] = system: S. epidermidis T 5501 851/19; experiment: MIC, clinical S. epidermidis strain; assay type: cell-based; details: Staphylococcus epidermidis, T5501851/19, read-out: MIC T 5501 851/19, quinolone-susceptible, 18 h of treatment
[4] = system: S. epidermidis KR 4358/2 840/19; experiment: MIC, clinical S. epidermidis strain; assay type: cell-based; details: Staphylococcus epidermidis, read-out: MIC KR 4358/2 840/19
HaCaT cells = experiment: MTT assay, HaCaT normal cells; assay type: cell-based; details: human immortal keratinocyte cell line, 72 h, mean ± SD
[5] = system: standard staphylococci (S. aureus, S. epidermidis); experiment: MIC, standard Gram-positive strains as a group; assay type: cell-based; details: Staphylococcus aureus; range over standard Gram-positive strains; read-out: MIC against standard staphylococci
S. aureus ATCC 25923 = experiment: MIC, twofold microdilution, standard strain; assay type: cell-based; details: Staphylococcus aureus, read-out: MIC S. aureus ATCC 25923
[6] = system: SW480, SW620, and PC3 cancer cell lines; experiment: MTT assay, cancer cell lines as a group; assay type: cell-based, human; details: 72 h, all three cancer cell lines (SW480, SW620, PC3), read-out: IC50 against all tested cancer cell lines
E. coli ATCC 25922 = experiment: MIC, twofold microdilution, standard strain; assay type: cell-based, Escherichia coli; details: Escherichia coli, read-out: MIC E. coli ATCC 25922
[7] = system: S. epidermidis ATCC 35984; experiment: MIC, twofold microdilution, standard strain; assay type: cell-based; details: Staphylococcus epidermidis, read-out: MIC S. epidermidis ATCC 35984
[8] = system: S. epidermidis T 5253 845/19; experiment: MIC, clinical S. epidermidis strain; assay type: cell-based; details: Staphylococcus epidermidis, T5253845/19, quinolone-resistant, 18 h of treatment
S. aureus ATCC 6538 = experiment: MIC, twofold microdilution, standard strain; assay type: cell-based; details: Staphylococcus aureus, read-out: MIC S. aureus ATCC 6538
[9] = system: S. epidermidis T 5399 848/19; experiment: MIC, clinical S. epidermidis strain; assay type: cell-based; details: Staphylococcus epidermidis, T5399848/19, quinolone-susceptible, 18 h of treatment
SW620 cells = experiment: MTT assay, SW620; assay type: cell-based, human; details: for IC50: Homo sapiens, SW-620, 72 h, human metastatic colon cancer, 72 h, MTT, mean ± SD; for SI SW620: SI = IC50 for normal cell line (HaCaT)/IC50 cancer cell line
SW480 cells = experiment: MTT assay, SW480; assay type: cell-based, human; details: for IC50: human primary colon cancer, 72 h, MTT, mean ± SD; for SI SW480: SI = IC50 for normal cell line (HaCaT)/IC50 cancer cell line
PC3 cells = experiment: MTT assay, PC3; assay type: cell-based, human; details: for IC50: human metastatic prostate cancer, 72 h, MTT, mean ± SD; for SI PC3: SI = IC50 for normal cell line (HaCaT)/IC50 cancer cell line
[10] = system: M. tuberculosis Spec. 192 (Sensitive to Tuberculostatics); experiment: MABA (microplate Alamar blue assay) MIC; assay type: cell-based; details: Mycobacterium tuberculosis, 336 h, read-out: MIC M. tuberculosis Spec. 192 (Sensitive to Tuberculostatics)
M. tuberculosis H37Rv = experiment: MABA (microplate Alamar blue assay) MIC; assay type: cell-based; details: Mycobacterium tuberculosis, 336 h, read-out: MIC M. tuberculosis H37Rv
P. aeruginosa ATCC 27853 = experiment: MIC, twofold microdilution, standard strain; assay type: cell-based; details: Pseudomonas aeruginosa, read-out: MIC P. aeruginosa ATCC 27853
S. aureus ATCC 29213 = experiment: MIC, twofold microdilution, standard strain; assay type: cell-based; details: Staphylococcus aureus, read-out: MIC S. aureus ATCC 29213
[11] = system: S. epidermidis KR 4313 834/19; experiment: MIC, clinical S. epidermidis strain; assay type: cell-based; details: Staphylococcus epidermidis, KR4313834/19, quinolone-susceptible, 18 h of treatment
S. aureus NCTC 4163 = experiment: MIC, twofold microdilution, standard strain; assay type: cell-based; details: Staphylococcus aureus, read-out: MIC S. aureus NCTC 4163
[12] = system: S. epidermidis KR 4047 825/19; experiment: MIC, clinical S. epidermidis strain; assay type: cell-based; details: Staphylococcus epidermidis, KR4047825/19, quinolone-resistant, 18 h of treatment
M. tuberculosis strains = experiment: MABA MIC, mycobacterial strains as a group; assay type: cell-based; details: Mycobacterium tuberculosis; summary over strains; read-out: MIC antimycobacterial (strain not specified)
[13] = KR4358/2840/19, clinical S. epidermidis, quinolone-susceptible, 18 h of treatment

Row | SMILES | MIC [2] [µg/mL] | MIC [3] [µg/mL] | IC50 (HaCaT cells) [µM] | MIC [5] [µg/mL] | MIC [8] [µg/mL] | MIC [9] [µg/mL] | IC50 (SW620 cells) [µM] | SI SW620 (SW620 cells) | IC50 (SW480 cells; Homo sapiens, SW480, 72 h) [µM] | SI SW480 (SW480 cells) | IC50 (PC3 cells; Homo sapiens, PC-3, 72 h) [µM] | SI PC3 (PC3 cells) | MIC [11] [µg/mL] | MIC [12] [µg/mL] | MIC ([1]; ATCC12228, 18 h of treatment) [µg/mL] | MIC [4, 13] [µg/mL] | MIC (S. aureus ATCC 25923; ATCC25923, 18 h of treatment) [µg/mL] | MIC (E. coli ATCC 25922; ATCC25922, 18 h of treatment) [µg/mL] | MIC ([7]; ATCC35984, 18 h of treatment) [µg/mL] | MIC (M. tuberculosis strains) [µg/mL] | further results
1 | CCCCCCCCCCCCCCCC(=O)N1CCC[C@H]2CN(c3c(F)cc4c(=O)c(C(=O)O)cn(C5CC5)c4c3OC)C[C@H]21 [Compound 9m, 1-Cyclopropyl-6-fluoro-7-(1-hexadecanoyl-octahydro-pyrrolo[3,4-b]pyridin-6-yl)-8-methox-4-oxo-1,4-dihydro-quinoline-3-carboxylic acid] | 512 (≈ 800 µM) | 512 (≈ 800 µM) | 96.7 ± 2.6 | > 32 | 512 (≈ 800 µM) | 512 (≈ 800 µM) | 10.4 ± 1.4 | 9.3 | 9.4 ± 2.3 | 10.3 | 8.1 ± 1.5 | 11.9 | 512 (≈ 800 µM) | 512 (≈ 800 µM) | – | – | – | – | – | – | MIC ([1]; ATCC12228, 18 h): > 512 µg/mL; MIC ([4]; KR4358/2840/19, 18 h): > 512 µg/mL; MIC (S. aureus ATCC 25923; ATCC25923, 18 h): > 512 µg/mL; IC50 ([6]; Homo sapiens): 5 to 10 µM; IC50 [6]: 5.6 to 10.4 µM; MIC (E. coli ATCC 25922; ATCC25922, 18 h): > 512 µg/mL; MIC ([7]; ATCC35984, 18 h): > 512 µg/mL; MIC (S. aureus ATCC 6538; ATCC6538, 18 h): > 512 µg/mL; MIC [10]: > 512 µg/mL; MIC (M. tuberculosis H37Rv): > 512 µg/mL; MIC (P. aeruginosa ATCC 27853; ATCC27853, 18 h): > 512 µg/mL; MIC (S. aureus ATCC 29213; ATCC29213, 18 h): > 512 µg/mL; MIC (S. aureus NCTC 4163; NCTC4163, 18 h): > 512 µg/mL
2 | CCCCC/C=C\C/C=C\CCCCCCCC(=O)N1CCCC2CN(c3c(F)cc4c(=O)c(C(=O)O)cn(C5CC5)c4c3OC)CC21 (stereo not drawn) [Compound 11m, 1-Cyclopropyl-6-fluoro-8-methoxy-7-{1-(9Z,12Z)-octadeca-9,12-dienoyl-octahydropyrrolo-[3,4-b]pyridin-6-yl)-4-oxo-1,4-dihydro-quinoline-3-carboxylic acid] | 256 (≈ 386 µM) | 512 (≈ 771 µM) | 91.4 ± 5.3 | > 32 | 512 (≈ 771 µM) | 512 (≈ 771 µM) | 7.3 ± 0.9 | 12.5 | < 5 | 19.0 | < 5 | 25.4 | 64 (≈ 96.4 µM) | 512 (≈ 771 µM) | > 512 | 128 (≈ 193 µM) | > 512 | > 512 | > 512 | ≥ 128 | MIC (S. aureus ATCC 6538; ATCC6538, 18 h of treatment): > 512 µg/mL; IC50 (SW480 cells): 4.8 ± 1.3 µM; IC50 (PC3 cells): 3.6 ± 1.1 µM; MIC ([10]; 2 weeks of treatment): 128 µg/mL (≈ 193 µM); MIC (M. tuberculosis H37Rv; 2 weeks of treatment): 512 µg/mL (≈ 771 µM); MIC (P. aeruginosa ATCC 27853; ATCC27853, 18 h of treatment): > 512 µg/mL; MIC (S. aureus ATCC 29213; ATCC29213, 18 h of treatment): > 512 µg/mL; MIC (S. aureus NCTC 4163; NCTC4163, 18 h of treatment): > 512 µg/mL
3 | CCCCC/C=C\C/C=C\C/C=C\CCCCC(=O)N1CCCC2CN(c3c(F)cc4c(=O)c(C(=O)O)cn(C5CC5)c4c3OC)CC21 (stereo not drawn) [Compound 12m, 1-Cyclopropyl-6-fluoro-8-methoxy-7-{1-(6Z,9Z,12Z)-octadeca-6,9,12-trienoyl-octahydro-pyrrolo[3,4-b]pyridin-6-yl}-4-oxo-1,4-dihydro-quinoline-3-carboxylic acid] | 32 (≈ 48.3 µM) | 32 (≈ 48.3 µM) | 88.7 ± 3.3 | > 32 | 512 (≈ 774 µM) | 32 (≈ 48.3 µM) | 18.3 ± 3.2 | 4.8 | 16.8 ± 2.3 | 5.3 | 14.7 ± 2.3 | 6.0 | 256 (≈ 387 µM) | 256 (≈ 387 µM) | 64 (≈ 96.7 µM) | 512 (≈ 774 µM) | 64 (≈ 96.7 µM) | 128 (≈ 193 µM) | 32 (≈ 48.3 µM) | 64 (≈ 96.7 µM) | MIC (S. aureus ATCC 6538; ATCC6538, 18 h of treatment): 64 µg/mL (≈ 96.7 µM); MIC ([10]; 2 weeks of treatment): 64 µg/mL (≈ 96.7 µM); MIC (M. tuberculosis H37Rv; 2 weeks of treatment): 64 µg/mL (≈ 96.7 µM); MIC (P. aeruginosa ATCC 27853; ATCC27853, 18 h of treatment): > 512 µg/mL; MIC (S. aureus ATCC 29213; ATCC29213, 18 h of treatment): 64 µg/mL (≈ 96.7 µM); MIC (S. aureus NCTC 4163; NCTC4163, 18 h of treatment): 64 µg/mL (≈ 96.7 µM)
